Results from patent publication US9682930B2, “Rheumatoid arthritis treatment” (Avexxin AS, priority 2011, dated 2017).
“Also recorded” adds a separate entry of the source.

Assays:
[1] = system: PGE2 production in SW982 cells; test: TNF induced PGE2 production in SW982 cells (EIA/ELISA); assay type: cell-based; details: for Fold change 1 (PGE2) / Fold change 2 (PGE2) / Mean fold change (PGE2): relative to Ctrl
Description: PGE2 production was monitored by ELISA. Those cells receiving treatment underwent reincubation (prior to stimulation) with either Compound 1 (AVX001) or Compound 2 (AVX002) for 2 hours.
FIGS. 3A and 3B show the determination of IC50 values for Compound 1 and Compound 2 inhibition of TNF induced PGE2 production in SW982 cells. […] corresponds to the PGE2 level induced with TNFα in combination with ethanol after incubation for 24 hours.
(§1) The Cell Culture SW982 model cell line at a confluent or spheroid state (Wada Y, 2005) was used since gene expression and generation of proinflammatory cytokines resemble RA-derived synovial fibroblast-like cells.
(§2) For stimulation experiments 0.5 mL of a cell suspension (5-7×10^5 cells/mL) were seeded inside the inner wells of 48-well plates. The outer wells were filled with 0.5 mL PBS. For nearly confluent populations, cells were incubated for one day (37° C., 5% CO2). In order to yield post-confluent cells, plates were left in the incubator for 3 days. After this incubation time, 300 μL of the supernatant was removed and replaced by 50 μL of stimulation medium.
(§3) Inhibition was performed in a similar manner as the stimulation. After seeding, incubation and replacement of the medium by 200 μL 0.5% FBS in DMEM, 50 μL of the particular inhibitor solution was added (Table 1). After 2 hours at 37° C., 50 μL of the supernatant was removed and replaced by the three stimulants described above.
Samples and controls were slowly thawed and diluted (between 1:1 and 1:2500) in the standard diluent. The maximal dilution was 1:10 for one step. That is why several intermediate dilutions were prepared. In the beginning all values were determined from duplicates. After having minimized technical errors, samples were only analyzed as individuals. All further steps, except for some minor corrections, were performed according to the manufacturer's recommendations as can be found in the manual of the EIA kit. In order to optimize the results, the incubation time of the alkaline phosphatase substrate was prolonged by 15 minutes. During the incubation, the plates were kept in the dark. An example of the arrangements of the samples and controls is illustrated in the appendix. The read-out was carried out with a Multiscan plate reader (Ascent Labsystems) at wavelengths of 414 and 595 nm after 10 seconds shaking at 120 rpm. The corresponding software to obtain the data was the Ascent software for Multiscan, Version 2.4.1.
SW982 cells were stimulated with TNF for various lengths ranging from 12-48 hours.

[2] = system: ESE-1 mRNA expression in SW982 cells; test: TNF-induced ESE-1 mRNA expression in postconfluent SW982 cells; assay type: cell-based; details: 2 hours preincubation, 6 hours 10 ng/ml TNF
Description: The cells were starved in 0% FCS-DMEM overnight before experimental treatment consisting of 2 hours preincubation of inhibitors followed by 6 hours stimulation with 10 ng/ml TNF
As a control, the NF-kB inhibitor BAY-7082 is included.

[3] = system: arachidonic acid (AA) release in SW982 cells; test: TNF-induced arachidonic acid (AA) release in SW982 cells; assay type: cell-based
Description: as §1, §2, §3
We evaluted inhibition in SW982 cells by analyzing arachidonic acid (AA) release in response to TNF with or without inhibitor pre-treatment. […] The inhibitory effect of Compound 2 was compared to that of ATK and SB203580 (FIG. 1b).

[4] = system: MMP3 expression in SW982 cells; test: Quantitative RT-PCR of MMP expression in TNF stimulated SW982 cells; assay type: cell-based; details: 2 hrs preincubation, TNF 24 hrs
Description: (§4) The expression of COX2, MMP and IL-8, both known to be central in inflammation and/or joint destruction was evaluated by quantiative RT-PCR. SW 982 cells were seeded at a density of 0.1×10^6 cells/well in a 6-well format and then serum-starved after reaching 2-days post confluency. Cells were preincubated with or without inhibitors for 2 hrs prior to treatment in absence or presence of TNF for 24 hrs. The fold-difference in expression of target inflammatory genes relative to an endogenous control (GAPDH) was determined using ΔΔCt method (ΔΔCt=Cttarget−CtGAPDHt)treated−(Cttarget−CtGAPDH)untreated. Mean±SD of 3 separate experiments.

[5] = system: COX2 expression in SW982 cells; test: Quantitative RT-PCR of COX2 expression in TNF stimulated SW982 cells; assay type: cell-based; details: TNF 24 hrs
Description: as §4

[6] = system: collagen-induced arthritis; test: Mouse model of collagen-induced arthritis (CIA), arthritis index; assay type: in vivo, male DBA/1 mice; details: CIA mice, treatment from Day 28 for 14 days, FIG. 7
Description: CIA was induced in male DBA/1 mice (except naive group) by immunization with 0.1 mL emulsion containing an equal volume of bovine collagen solution (2 mg/mL) and Freund's Complete Adjuvant antigen solution at the tail base. The first injection was given on Day 0 and the second injection as booster was given on Day 21. Treatment was started on Day 28 and continued for 14 days.

[7] = system: IL-8 expression in SW982 cells; test: Quantitative RT-PCR of IL-8 expression in TNF stimulated SW982 cells; assay type: cell-based; details: TNF 24 hrs
Description: as §4

[8] = SW982 cells, 2 hrs preincubation, n = 3
[9] = relative to GAPDH, ΔΔCt, n = 3, mean +/- SD

`CCCCC/C=C\C/C=C\C/C=C\C/C=C\CCCC(=O)C(F)(F)F` [ATK, reference compound] was tested, and the “Effect on PGE2 production in response to TNF stimulation” value (from here on “Effect on PGE2 production in response”) ([1]; SW982 cells) was “reduced PGE2 production to basal levels”.

`CC/C=C\C/C=C\C/C=C\C/C=C\C/C=C\CCSCC(=O)C(F)(F)F` [Compound 2] was tested, and the “% Inhibition (PGE2)” value ([1]; 5 uM inhibitor + TNF) was 107.3%, the “Mean PGE2” value ([1]; 5 uM inhibitor + TNF) was 87.5 and the “Fold change 1 (PGE2)” value ([1]; 5 uM inhibitor + TNF) was 0.64. The “Fold change 2 (PGE2)” value ([1]; 5 uM inhibitor + TNF) was 0.30, the “Mean fold change (PGE2)” value ([1]; 5 uM inhibitor + TNF) was 0.47 and the “% Inhibition (PGE2)” value ([1]; 10 uM inhibitor + TNF) was 103.7%. For the same compound, the “Mean PGE2” value ([1]; 10 uM inhibitor + TNF) was 147.5, the “Fold change 1 (PGE2)” value ([1]; 10 uM inhibitor + TNF) was 1.34 and the “Fold change 2 (PGE2)” value ([1]; 10 uM inhibitor + TNF) was 0.38. For the same compound, the “Mean fold change (PGE2)” value ([1]; 10 uM inhibitor + TNF) was 0.86, the “Effect on PGE2 production in response” value ([1]; SW982 cells) was “reduced PGE2 production to basal levels” and the IC50 ([1]; SW982 cells, FIG. 3, read-out: IC50 for inhibition of TNF induced PGE2 production) was ~0.43 µM. The “Regulation of TNF-induced ESE-1 expression” value [2] was “in a dose dependent manner; also recorded: similar, if not better, regulation of ESE-1 expression than the known NF-kB inhibitor BAY-7082”, the IC50 ([3]; TNF 10 ng/ml, inhibitor pre-treatment, read-out: IC50 for reduction of TNF-induced release of AA) was ~1 µM and the “Effect on AA release” value ([3]; TNF-induced) was “normalizes AA-release to basal level”. For the same compound, the “% Inhibition of induction of MMP3 message” value [4] was ~58%, the “% Inhibition of induction of COX2 message” value [5, 8] was 42.22% and the “Average fold induction of COX2 transcript, Compound 2/TNF” value [5, 9] was 5.40 +/− 4.32. The “Reduction of arthritis index (AI)” value [6] was “More Effective than ENBREL® (Etanercept) in Reducing an Arthritis Index”, the “% Inhibition of induction of IL-8 message” value [7, 8] was 53.49% and the “Average fold induction of IL-8 transcript, Compound 2/TNF” value [7, 9] was 39.21 +/− 10.76.

With `C[S+]([O-])c1ccc(-c2nc(-c3ccncc3)c(-c3ccc(F)cc3)[nH]2)cc1` (centres unmarked) [SB203580, reference compound] the “Mean PGE2” value ([1]; 10 uM inhibitor + TNF) was 25.6, the “Fold change 1 (PGE2)” value ([1]; 10 uM inhibitor + TNF) was 0.18 and the “Fold change 2 (PGE2)” value ([1]; 10 uM inhibitor + TNF) was 0.09. For the same compound, the “Mean fold change (PGE2)” value ([1]; 10 uM inhibitor + TNF) was 0.14, the inhibition at 10 µM ([1]; Homo sapiens, SW982, 10 uM inhibitor + TNF) was 111% and the “Effect on PGE2 production in response” value ([1]; SW982 cells) was “depleted PGE2 levels to below basal release”.

For `COc1ccc2c(c1)c(CC(=O)O)c(C)n2C(=O)c1ccc(Cl)cc1` [indomethasin, reference compound], the “Regulation of TNF-induced ESE-1 expression” value [2] was “poorer regulation of TNF induced ESE-1 expression than the control”.
